Test system: high fat diet (HFD) rabbit model of metabolic-associated steatohepatitis (MASH)
Assay: HFD rabbit study, acute 5-day treatment: liver markers mRNA expression by RT-PCR
Assay type: in vivo, New Zealand White rabbits
Conditions: 30 mg/kg p.o. 5 days, week 12, mean ± SD, n = 3
Description: After 1 week of standard diet, animals (n = 12) were randomly assigned to the following groups (Table 1A): • Control rabbits continued to receive a regular diet (RD) for 12 weeks and were treated for 5 days (days 1–5, p.o.), during the last week before culling, with either vehicle; RD+1W Veh group] or GB1211 (30 mg/kg; RD + 1W 30 mg group); • Rabbits received a high fat diet (HFD) for 12 weeks (RD implemented with 0.5% cholesterol and 2.5% vegetable fat) and were treated for 5 days (days 1–5, p.o.), during the last week before culling, with either vehicle (HFD + 1W Veh group) or GB1211 (30 mg/kg; HFD + 1W 30 mg group).
TRIzol reagent (Life Technologies, Paisley, United Kingdom) and/or RNeasy Mini Kit (Qiagen, Hilden, Germany) were used to isolate total RNA from rabbit liver specimens. RNA concentration and quality were measured using a Nanodrop ND-1000 (Thermo Fisher Scientific) at 260 nm and 280 nm. The OD 260/280 absorbance ratios were between 2.0 and 2.1 for all samples, to confirm RNA integrity and purification. cDNA synthesis was carried out using the iScript™ cDNA Synthesis Kit (Bio-Rad Laboratories, Hercules, CA), with 100 ng of mRNA in 20 µL reaction volume in accordance with the following protocol: 5 min at 25°C, 20 min at 46°C and 5 min at 85°C, followed by refrigeration at 4°C.
Semi-quantitative real-time RT-PCR (qRT-PCR) amplification and detection was performed with SsoAdvanced™ universal SYBR® Supermix and a CFX96 Two-Color Real-Time PCR Detection System (both Bio-Rad Laboratories) with the following thermal cycler conditions: 40 cycles at 95°C for 15 s and 60°C for 1 min. Specific PCR primers for rabbit target genes were designed on sequences available at the National Center for Biotechnology Information GenBank (http://www.ncbi.nlm.nih.gov) or Ensemble Genome (http://www.ensembl.org).
The 18S ribosomal RNA subunit was quantified with a predeveloped assay (Hs99999901_s1, Life Technologies) and used as the housekeeping gene for the relative quantitation of the target genes based on the comparative threshold cycle (Ct) 2^−ΔΔCt method ([Livak and Schmittgen, 2001]), with some modifications. In detail, we used the vehicle control groups as the calibrator in each analysis, so that the calculations would provide the fold-change of the other groups relative to controls.

OC[C@H]1O[C@H](Sc2cncc(Br)c2)[C@H](O)[C@@H](n2cc(-c3cc(F)c(F)c(F)c3)nn2)[C@H]1O [selvigaltin]
CD8 liver mRNA expression (HFD rabbits): 1.76 ± 0.20 fold-change vs. RD+1W Veh
COL1A1 liver mRNA expression (HFD rabbits): 20.12 ± 15.24 fold-change vs. RD+1W Veh
COL3A1 liver mRNA expression (HFD rabbits): 9.96 ± 7.51 fold-change vs. RD+1W Veh
COX-2 liver mRNA expression (HFD rabbits): 8.81 ± 10.30 fold-change vs. RD+1W Veh
EDN1 liver mRNA expression (HFD rabbits): 1.32 ± 0.21 fold-change vs. RD+1W Veh
EDNRA liver mRNA expression (HFD rabbits): 7.73 ± 5.69 fold-change vs. RD+1W Veh
EDNRB liver mRNA expression (HFD rabbits): 2.23 ± 0.95 fold-change vs. RD+1W Veh
FN1 liver mRNA expression (HFD rabbits): 0.98 ± 0.14 fold-change vs. RD+1W Veh
FOXP3 liver mRNA expression (HFD rabbits): 5.15 ± 2.78 fold-change vs. RD+1W Veh
IGF-1 liver mRNA expression (HFD rabbits): 0.34 ± 0.08 fold-change vs. RD+1W Veh
LGALS3 liver mRNA expression (HFD rabbits): 116.95 ± 77.56 fold-change vs. RD+1W Veh
PAI-1 liver mRNA expression (HFD rabbits): 14.10 ± 16.47 fold-change vs. RD+1W Veh
SNAI2 liver mRNA expression (HFD rabbits): 1.55 ± 0.26 fold-change vs. RD+1W Veh
TBET liver mRNA expression (HFD rabbits): 0.74 ± 0.14 fold-change vs. RD+1W Veh
TGFβ1 liver mRNA expression (HFD rabbits): 4.25 ± 2.06 fold-change vs. RD+1W Veh
TGFβ3 liver mRNA expression (HFD rabbits): 2.97 ± 1.96 fold-change vs. RD+1W Veh
αSMA liver mRNA expression (HFD rabbits): 5.77 ± 3.34 fold-change vs. RD+1W Veh
CD8 liver mRNA expression (RD rabbits): 1.14 ± 0.81 fold-change vs. RD+1W Veh
COL1A1 liver mRNA expression (RD rabbits): 0.82 ± 0.40 fold-change vs. RD+1W Veh
COL3A1 liver mRNA expression (RD rabbits): 0.47 ± 0.21 fold-change vs. RD+1W Veh
COX-2 liver mRNA expression (RD rabbits): 2.52 ± 1.59 fold-change vs. RD+1W Veh
EDN1 liver mRNA expression (RD rabbits): 0.91 ± 0.20 fold-change vs. RD+1W Veh
EDNRA liver mRNA expression (RD rabbits): 0.89 ± 0.29 fold-change vs. RD+1W Veh
EDNRB liver mRNA expression (RD rabbits): 0.79 ± 0.19 fold-change vs. RD+1W Veh
FN1 liver mRNA expression (RD rabbits): 1.05 ± 0.12 fold-change vs. RD+1W Veh
FOXP3 liver mRNA expression (RD rabbits): 0.86 ± 0.12 fold-change vs. RD+1W Veh
IGF-1 liver mRNA expression (RD rabbits): 1.01 ± 0.19 fold-change vs. RD+1W Veh
LGALS3 liver mRNA expression (RD rabbits): 1.27 ± 1.04 fold-change vs. RD+1W Veh
PAI-1 liver mRNA expression (RD rabbits): 2.63 ± 1.79 fold-change vs. RD+1W Veh
SNAI2 liver mRNA expression (RD rabbits): 1.01 ± 0.31 fold-change vs. RD+1W Veh
TBET liver mRNA expression (RD rabbits): 0.75 ± 0.20 fold-change vs. RD+1W Veh
TGFβ1 liver mRNA expression (RD rabbits): 0.95 ± 0.31 fold-change vs. RD+1W Veh
TGFβ3 liver mRNA expression (RD rabbits): 0.70 ± 0.08 fold-change vs. RD+1W Veh
αSMA liver mRNA expression (RD rabbits): 0.96 ± 0.59 fold-change vs. RD+1W Veh

Reference: publication PMC11322497 (Frontiers in Pharmacology, 2024)
